Data as given in ChEMBL document CHEMBL1201862, “PubChem BioAssay data set” (2004).
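Step 1: Grow cells in 96-well plates. Step 2: Expose to compound for 48 hours at 5 concentrations. Step 3: Interpolate endpoints linearly; if unreached, use highest concentration. Here, GI50 denotes the concentration required for 50% inhibition of growth.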 The source made the active and inactive calls. Rule as the data show it: active = GI50 up to about 1.1 µM and inactive = higher.

Experiments:
Assay in all cases: inhibition of tumour cell growth, NCI panel, 48 h
MCF7 = system: MCF7
MDA-MB-231 = system: MDA-MB-231
NCI-H23 = system: NCI-H23
COLO 205 = system: COLO 205
HCT-15 = system: HCT-15
SF-268 = system: SF-268
SNB-75 = system: SNB-75
SK-MEL-2 = system: SK-MEL-2
SN12C = system: SN12C
HCT-116 = system: HCT-116
UACC-62 = system: UACC-62
SNB-19 = system: SNB-19
M14 = system: M14
PC-3 = system: PC-3
UACC-257 = system: UACC-257
IGROV-1 = system: IGROV-1
A498 = system: A498
T47D = system: T47D
HCC 2998 = system: HCC 2998
EKVX = system: EKVX

SMILES	GI50 (MCF7)	GI50 (MDA-MB-231)	GI50 (NCI-H23)	GI50 (COLO 205)	GI50 (HCT-15)	GI50 (SF-268)	GI50 (SNB-75)	GI50 (SK-MEL-2)	GI50 (SN12C)	GI50 (HCT-116)	GI50 (UACC-62)	GI50 (SNB-19)	GI50 (M14)	GI50 (PC-3)	GI50 (UACC-257)	GI50 (IGROV-1)	GI50 (A498)	GI50 (T47D)	GI50 (HCC 2998)	GI50 (EKVX)
O=C(O)c1cc(-c2ccc3cc(O)c(O)cc3c2)ccc1O	> 12.5 µM (inactive)	> 12.5 µM (inactive)	> 12.5 µM (inactive)	> 12.5 µM (inactive)	> 12.5 µM	> 12.5 µM (inactive)	4.94 µM (inactive)	> 12.5 µM (inactive)	> 12.5 µM (inactive)	> 12.5 µM (inactive)	> 12.5 µM (inactive)	> 12.5 µM (inactive)	> 12.5 µM (inactive)	> 12.5 µM (inactive)	> 12.5 µM (inactive)	> 12.5 µM (inactive)	> 12.5 µM (inactive)	> 12.5 µM (inactive)		
Oc1ccc(C(c2ccc(O)cc2)c2ccc(O)cc2)cc1	32.4 µM (inactive)	16.3 µM (inactive)	19.2 µM (inactive)	7.16 µM (inactive)	23.9 µM	32.1 µM (inactive)		19.8 µM (inactive)	20.3 µM (inactive)	16.8 µM (inactive)	14.5 µM (inactive)	24.4 µM (inactive)		24 µM (inactive)	20.4 µM (inactive)	14.3 µM (inactive)	15.8 µM (inactive)	9.27 µM (inactive)	18 µM (inactive)	15.3 µM (inactive)
CCCCCc1nnc(NS(=O)(=O)c2ccc(NC(=O)OCC(C)C)cc2)s1	37.8 µM (inactive)	36.2 µM (inactive)	53.2 µM (inactive)	18.5 µM (inactive)	36 µM	41.9 µM (inactive)		19.1 µM (inactive)	33.9 µM (inactive)	26.2 µM (inactive)	29.5 µM (inactive)	69.3 µM (inactive)	41.9 µM (inactive)	36.8 µM (inactive)	79.6 µM (inactive)	25.7 µM (inactive)	2.64 µM (inactive)	34.2 µM (inactive)		33.3 µM (inactive)
Cc1nnc2sc(Cc3cnc(N)s3)nn12	> 100 µM (inactive)	> 100 µM (inactive)	> 100 µM (inactive)	> 100 µM (inactive)	> 100 µM	> 100 µM (inactive)	> 100 µM (inactive)	> 100 µM (inactive)	> 100 µM (inactive)	> 100 µM (inactive)	> 100 µM (inactive)	> 100 µM (inactive)	> 100 µM (inactive)	> 100 µM (inactive)	> 100 µM (inactive)	91.4 µM (inactive)		> 100 µM (inactive)	> 100 µM (inactive)	> 100 µM (inactive)
N#Cc1sc2c(c1OC(=O)c1ccc(C(F)(F)F)cc1)c(=O)n(-c1ccccc1)c(=S)n2-c1ccccc1	30.1 µM (inactive)	31.3 µM (inactive)	29.6 µM (inactive)	21.6 µM (inactive)	21.8 µM	33 µM (inactive)	27.4 µM (inactive)		29.5 µM (inactive)	17.8 µM (inactive)	22.4 µM (inactive)	34 µM (inactive)	24.2 µM (inactive)	26.7 µM (inactive)	42.7 µM (inactive)	21.2 µM (inactive)	26.7 µM (inactive)	34.5 µM (inactive)	34.4 µM (inactive)	24.9 µM (inactive)
Cc1nn(C(=O)Cc2ccccc2)c2c1C(c1ccccc1)SC(=N)N2 (stereo not given)	> 100 µM (inactive)	> 100 µM (inactive)	> 100 µM (inactive)	> 100 µM (inactive)	> 100 µM	> 100 µM (inactive)	43.5 µM (inactive)		> 100 µM (inactive)	> 100 µM (inactive)	> 100 µM (inactive)	> 100 µM (inactive)	> 100 µM (inactive)	> 100 µM (inactive)	> 100 µM (inactive)	> 100 µM (inactive)	> 100 µM (inactive)	> 100 µM (inactive)	> 100 µM (inactive)	> 100 µM (inactive)
COC(=O)[C@@H]1[C@H](O)CC[C@H]2[C@@]1(C)CC[C@@H](C)[C@]2(COC(C)=O)CC(=O)c1ccoc1	> 50 µM (inactive)	> 50 µM (inactive)	> 50 µM (inactive)	> 50 µM (inactive)	> 50 µM	> 50 µM (inactive)	> 50 µM (inactive)	> 50 µM (inactive)	> 50 µM (inactive)	> 50 µM (inactive)	20.9 µM (inactive)	> 50 µM (inactive)	> 50 µM (inactive)	> 50 µM (inactive)	> 50 µM (inactive)	> 50 µM (inactive)	> 50 µM (inactive)	28.8 µM (inactive)		> 50 µM (inactive)
